In patent US6787551B2, “Thiazolidinedione derivatives and pharmaceutical composition comprising the same” (Chong Kun Dang Pharmaceutical Corporation, priority 2002, dated 2004):
Read-outs that look alike come from different tables or passages of the source.

How the values were obtained:
[1] = tested on: differentiated 3T3-L1 cell; test: 2-Deoxy-D-[2,6-3H] glucose uptake assay; format: cell-based; conditions: differentiated 3T3-L1 cells, 24 h with compound, 0.5 nM insulin, concentration giving 50% of maximum enhancement of insulin activation, read-out: 2-deoxyglucose uptake (EC50 nM)
Protocol: 1) 2-Deoxy-D-[2,6-3H] glucose uptake assay (in differentiated 3T3-L1 cell)
Undifferentiated adipocyte 3T3-L1 cells were inoculated in a 24-well plate and cultivated in a CO2 incubator at 37° C. To induce differentiation of the undifferentiated adipocytes, the cells were then incubated in a differentiation medium. After adding a certain concentration of each of the test compounds to the medium, the cells were again incubated for 24 hours. After removing the medium, the cells were washed with phosphate buffer, and 0.5 nM of insulin in phosphate buffer was added to the washed cells, followed by incubation for 40 minutes. Then, 0.5 uCi of 2-deoxy-D-[2,6-3H] glucose per well was again added to the cells, which were let stand for 4 minutes. Then, the cells were washed with phosphate buffer, and cell lysis buffer was added, so as to dissolve the cell membranes. The cell sample was placed into a liquid scintillation cocktail solution. The radioactivity of the sample was counted by a liquid scintillation counter.

[2] = tested on: mice with diabetes (KK/Ay); test: Blood glucose- and blood lipid-lowering action in mice with diabetes; format: in vivo; conditions: male KK/Ay mice, daily oral administration for 5 days; for Blood glucose (ED25): dose reducing blood glucose by 25%; for Triglyceride (ED25): dose reducing triglyceride by 25%
Protocol: Male mice with diabetes (KK/Ay: 10 weeks old, 5 animals/group) were housed and given free access to water and food. The animals received a daily oral administration of the test compounds for 5 days. After the last dose, a blood sample was drawn via the orbital sinus.
The plasma was analyzed for blood glucose content using the Glucose-E kit (YEONGDONG PHARMACEUTICAL CO. LTD., Korea), and for triglyceride content using the Triglyceride kit (YEONGDONG PHARMACEUTICAL CO. LTD., Korea).

[3] = tested on: primary cultured rat hepatocytes; test: Cytotoxicity assay in primary cultured rat hepatocytes (neutral red); conditions: for Safety index (TC25 nM/EC50 nM): TC25 in hepatocyte cytotoxicity assay / EC50 in triglyceride accumulation assay; for Cytotoxicity in hepatocyte (TC25 uM): primary rat hepatocytes, 24 h, neutral red, 25% toxic concentration
Protocol: Hepatocytes isolated from rat were inoculated in a collagen-coated 24 well plate and was incubated in a CO2 incubator at 37° C. for 24 hours. Then, a certain concentration of each of the test compounds was added, and the cells were again incubated for 24 hours. The cells were then incubated in a 0.4% neutral red containing medium for 4 hours and washed once with phosphate buffer. 0.5 ml of a solution of 1% acetic acid-50% ethanol was added to the cells, which were let stand. 200 ul of the cell sample was taken and absorbance was measured at 570 nm. The cytotoxicity assay performed on hepatocytes was measured as 25% toxic concentration (TC25, uM). Then, the safety index, i.e. the TC25 value in the cytotoxicity assay in hepatocyte/the EC50 value in the triglyceride accumulation assay, was calculated.

[4] = tested on: 3T3-L1 cells; test: Triglyceride accumulation assay; format: cell-based; conditions: 4 days with compound, concentration giving 50% of maximum enhancement of rosiglitazone activation
Protocol: 2) Triglyceride accumulation assay (in 3T3-L1 cells)
Undifferentiated adipocyte 3T3-L1 cells were inoculated in a 24-well plate and cultivated in a CO2 incubator at 37° C. To induce differentiation of the undifferentiated adipocytes, the cells were then incubated in a differentiation medium for 48 hours. After adding a certain concentration of each of the test compounds to the differentiation medium, the cells were again incubated for 4 days. Then, the final cell sample was placed into 200 μl of 2-propanol. The amount of triglyceride in the cells were measured by Triglyceride Kit [YEONGDONG PHARMACEUTICAL CO. LTD., Korea] commercially available.

| Compound | EC50 [1] | Blood glucose (ED25) [2] | Triglyceride (ED25) [2] | Safety index (TC25 nM/EC50 nM) [3] | Cytotoxicity in hepatocyte (TC25 uM) [3] | EC50 [4] | EC50 ([1]; Mus musculus) | EC50 ([4]; Mus musculus, 96 h) |
| --- | --- | --- | --- | --- | --- | --- | --- | --- |
| CC(C)Oc1ccc(Oc2cc(N(C)CCOc3ccc(CC4SC(=O)NC4=O)cc3)ncn2)cc1 (stereo not drawn) [Ex. 27, 5-(4-[2-(N-methyl-N-(6-(4-(4-isopropoxy)phenoxy)pyrimidinyl)amino)ethoxy]benzyl)-2,4-thiazolidinedione] | 35.5 nM | 0.8 mg/kg | 4.5 mg/kg | 3594 | 78000 nM | 21.7 nM | – | – |
| COc1ccc(Oc2ccnc(N(C)CCOc3ccc(CC4SC(=O)NC4=O)cc3)c2)cc1 (stereo not drawn) [Ex. 35, 5-(4-[2-(N-methyl-N-(2-(4-(4-methoxy)phenoxy)pyridinyl)amino)ethoxy]benzyl)-2,4-thiazolidinedione] | 19.3 nM | 2.5 mg/kg | 9.1 mg/kg | 10000 | 96000 nM | 9.6 nM | – | – |
| 5-(4-[2-(N-methyl-N-2-(4-(4-isopropyl)pyridinyl)amino)ethoxy]benzyl)-2,4-thiazolidinedione [Ex. 36] | 20.9 nM | 3.5 mg/kg | 14.9 mg/kg | 4663 | 76000 nM | 16.3 nM | – | – |
| CCc1ccc(Oc2cc(N(C)CCOc3ccc(C=C4SC(=O)NC4=O)cc3)ncn2)cc1 [Ex. 9, 5-(4-[2-(N-methyl-N-(6-(4-(4-ethyl)phenoxy)pyrimidinyl)amino)ethoxy]benzylidene)-2,4-thiazolidinedione] | 55.2 nM | 4.1 mg/kg | 29 mg/kg | 3010 | 90000 nM | 29.9 nM | – | – |
| CN(CCOc1ccc(CC2SC(=O)NC2=O)cc1)c1cc(Oc2ccccc2)ccn1 (stereo not drawn) [Ex. 22, 5-(4-[2-(N-methyl-N-(2-(4-phenoxy)pyridinyl)amino)ethoxy]benzyl)-2,4-thiazolidinedione] | 1.8 nM | 0.7 mg/kg | 3.9 mg/kg | 137037 | 74000 nM | 0.54 nM | – | – |
| CN(CCOc1ccc(C=C2SC(=O)NC2=O)cc1)c1cc(Oc2ccc(Cl)cc2)ncn1 [Ex. 5, 5-(4-[2-(N-methyl-N-(6-(4-(4-chloro)phenoxy)pyrimidinyl)amino)ethoxy]benzylidene)-2,4-thiazolidinedione] | 45 nM | 4.0 mg/kg | 28 mg/kg | 2657 | 93000 nM | 35 nM | – | – |
| CN(CCOc1ccc(CC2SC(=O)NC2=O)cc1)c1cc(Oc2ccc(Cl)cc2)ncn1 (stereo not drawn) [Ex. 24, 5-(4-[2-(N-methyl-N-(6-(4-(4-chloro)phenoxy)pyrimidinyl)amino)ethoxy]benzyl)-2,4-thiazolidinedione] | 0.2 nM | 0.18 mg/kg | 0.6 mg/kg | 750000 | 75000 nM | 0.1 nM | – | – |
| 5-(4-[2-(N-methyl-N-(2-(4-(4-chloro)phenoxy)pyridinyl)amino)ethoxy]benzyl)-2,4-thiazolidinedione [Ex. 34] | 4 nM | 1.9 mg/kg | 5.6 mg/kg | 48667 | 73000 nM | 1.5 nM | – | – |
| CN(CCOc1ccc(CC2SC(=O)NC2=O)cc1)c1cc(Oc2ccccc2)ncn1 (stereo not drawn) [Ex. 20, 5-(4-[2-(N-methyl-N-(6-(4-phenoxy)pyrimidinyl)amino)ethoxy]benzyl)-2,4-thiazolidinedione] | 7.5 nM | 0.22 mg/kg | 1.2 mg/kg | 29630 | 80000 nM | 2.7 nM | – | – |
| CN(CCOc1ccc(C=C2SC(=O)NC2=O)cc1)c1cc(Oc2ccccc2)ncn1 [Ex. 1] | 58 nM | 4.0 mg/kg | 30 mg/kg | 2578 | 98000 nM | 38 nM | – | – |
| CCOc1ccc(Oc2cc(N(C)CCOc3ccc(CC4SC(=O)NC4=O)cc3)ncn2)cc1 (stereo not drawn) [Ex. 26, 5-(4-[2-(N-methyl-N-(6-(4-(4-ethoxy)phenoxy)pyrimidinyl)amino)ethoxy]benzyl)-2,4-thiazolidinedione] | 14.4 nM | 0.8 mg/kg | 4.3 mg/kg | 12338 | 95000 nM | 7.7 nM | – | – |
| CN(CCOc1ccc(CC2SC(=O)NC2=O)cc1)c1cc(Oc2ccc(-c3ccccc3)cc2)ncn1 (stereo not drawn) [Ex. 31] | 20.5 nM | 3.2 mg/kg | 12.6 mg/kg | 5840 | 73000 nM | 12.5 nM | – | – |
| CN(CCOc1ccc(CC2SC(=O)NC2=O)cc1)c1cc(Oc2ccc(F)cc2)ncn1 (stereo not drawn) [Ex. 23, 5-(4-[2-(N-methyl-N-(6-(4-(4-fluoro)phenoxy)pyrimidinyl)amino)ethoxy]benzyl)-2,4-thiazolidinedione] | 2.4 nM | 0.25 mg/kg | 2.2 mg/kg | 87654 | 71000 nM | 0.81 nM | – | – |
| CCc1ccc(Oc2cc(N(C)CCOc3ccc(CC4SC(=O)NC4=O)cc3)ncn2)cc1 (stereo not drawn) [Ex. 28, 5-(4-[2-(N-methyl-N-(6-(4-(4-ethyl)phenoxy)pyrimidinyl)amino)ethoxy]benzyl)-2,4-thiazolidinedione] | 5.2 nM | 1.8 mg/kg | 16.9 mg/kg | 40476 | 85000 nM | 2.1 nM | – | – |
| COc1ccc(Oc2cc(N(C)CCOc3ccc(CC4SC(=O)NC4=O)cc3)ncn2)cc1 (stereo not drawn) [Ex. 25, 5-(4-[2-(N-methyl-N-(6-(4-(4-methoxy)phenoxy)pyrimidinyl)amino)ethoxy]benzyl)-2,4-thiazolidinedione] | 0.2 nM | 0.15 mg/kg | 0.5 mg/kg | 727272 | 80000 nM | 0.11 nM | – | – |
| CN(CCOc1ccc(CC2SC(=O)NC2=O)cc1)c1ccccn1 (stereo not drawn) [Rosiglitazone, reference compound] | – | 4.1 mg/kg | More than 30 mg/kg | 1489 | 70000 nM | – | 75 nM | 47 nM |
| CC(C)c1ccc(Oc2cc(N(C)CCOc3ccc(CC4SC(=O)NC4=O)cc3)ncn2)cc1 (stereo not drawn) [Ex. 30, 5-(4-[2-(N-methyl-N-(6-(4-(4-isopropyl)phenoxy)pyrimidinyl)amino)ethoxy]benzyl)-2,4-thiazolidinedione] | 13.3 nM | 2.1 mg/kg | 21.2 mg/kg | 11077 | 72000 nM | 6.5 nM | – | – |
| CN(CCOc1ccc(C=C2SC(=O)NC2=O)cc1)c1cc(Oc2ccc(-c3ccccc3)cc2)ncn1 [Ex. 12, 5-(4-[2-(N-methyl-N-(6-(4-(4-phenyl)phenoxy)pyrimidinyl)amino)ethoxy]benzylidene)-2,4-thiazolidinedione] | 49.5 nM | 4.1 mg/kg | 25 mg/kg | 1816 | 85000 nM | 46.8 nM | – | – |
| 5-(4-[2-(N-methyl-N-(2-(4-(4-fluoro)phenoxy)pyridinyl)amino)ethoxy]benzyl)-2,4-thiazolidinedione [Ex. 33] | 8.9 nM | 1.1 mg/kg | 6.5 mg/kg | 17679 | 99000 nM | 5.6 nM | – | – |
